Assays:
Test in all cases: relative viability (nuclei count vs DMSO), 5 days (fraction); higher = more cells survive
[1] = system: 201T
Method in brief: (§1)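 Lung cancer cell lines were seeded in 1536-well plates and dosed by pin tool the next day, with either a single drug or a fixed anchor-drug dose combined with five library-drug doses (not always all listed) spaced in √10 steps. Five days later, one step fixed the cells and stained their nuclei (final 0.05% Triton X-100, 1% formaldehyde, 1 ug/ml Hoechst), and nuclei were counted on 4× images. Relative viability is the nuclei count in treated wells divided by the count in vehicle wells, and each value is the median of duplicate plates.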

[2] = system: A-427
Method in brief: as §1

[3] = system: ABC-1
Method in brief: as §1

[4] = system: BEN
Method in brief: as §1

[5] = system: CAL-12T
Method in brief: as §1

[6] = system: H3255
Method in brief: as §1

[7] = system: LC-2-ad
Method in brief: as §1

[8] = system: LCLC-97TM1
Method in brief: as §1

[9] = system: NCI-H1650
Method in brief: as §1

[10] = system: NCI-H1651
Method in brief: as §1

[11] = system: NCI-H1915
Method in brief: as §1

`O=c1cc(N2CCOCC2)oc2c(-c3cccc4c3sc3ccccc34)cccc12` + Cc1nc(Nc2ncc(C(=O)Nc3c(C)cccc3Cl)s2)cc(N2CCN(CCO)CC2)n1 [Dasatinib] (partner 0.075 µM) was tested, and the relative viability ([1]; first compound 0.01 µM) was 0.592, the relative viability ([1]; first compound 0.03162 µM) was 0.592 and the relative viability ([1]; first compound 0.1 µM) was 0.596. For the same compound, the relative viability ([1]; first compound 0.3162 µM) was 0.505, the relative viability ([1]; first compound 1 µM) was 0.596 and the relative viability ([2]; first compound 0.01 µM) was 0.728. The relative viability ([2]; first compound 0.03162 µM) was 0.766, the relative viability ([2]; first compound 0.1 µM) was 0.677 and the relative viability ([2]; first compound 0.3162 µM) was 0.636. It also gave a relative viability ([2]; first compound 1 µM) of 0.792, a relative viability ([3]; first compound 0.01 µM) of 0.569 and a relative viability ([3]; first compound 0.03162 µM) of 0.561. It also gave a relative viability ([3]; first compound 0.1 µM) of 0.582, a relative viability ([3]; first compound 0.3162 µM) of 0.488 and a relative viability ([3]; first compound 1 µM) of 0.567. For the same compound, the relative viability ([4]; first compound 0.01 µM) was 0.317, the relative viability ([4]; first compound 0.03162 µM) was 0.362 and the relative viability ([4]; first compound 0.1 µM) was 0.3. For the same compound, the relative viability ([4]; first compound 0.3162 µM) was 0.354, the relative viability ([4]; first compound 1 µM) was 0.266 and the relative viability ([5]; first compound 0.01 µM) was 0.322. For the same compound, the relative viability ([5]; first compound 0.03162 µM) was 0.531, the relative viability ([5]; first compound 0.1 µM) was 0.49 and the relative viability ([5]; first compound 0.3162 µM) was 0.317. For the same compound, the relative viability ([5]; first compound 1 µM) was 0.295, the relative viability ([6]; first compound 0.01 µM) was 0.348 and the relative viability ([6]; first compound 0.03162 µM) was 0.338. For the same compound, the relative viability ([6]; first compound 0.1 µM) was 0.337, the relative viability ([6]; first compound 0.3162 µM) was 0.379 and the relative viability ([6]; first compound 1 µM) was 0.345. The relative viability ([7]; first compound 0.01 µM) was 0.536, the relative viability ([7]; first compound 0.03162 µM) was 0.688 and the relative viability ([7]; first compound 0.1 µM) was 0.775. It also gave a relative viability ([7]; first compound 0.3162 µM) of 0.578, a relative viability ([7]; first compound 1 µM) of 0.527 and a relative viability ([8]; first compound 0.01 µM) of 0.904. The relative viability ([8]; first compound 0.03162 µM) was 0.86, the relative viability ([8]; first compound 0.1 µM) was 0.788 and the relative viability ([8]; first compound 0.3162 µM) was 0.917. It also gave a relative viability ([8]; first compound 1 µM) of 0.898, a relative viability ([9]; first compound 0.01 µM) of 0.34 and a relative viability ([9]; first compound 0.03162 µM) of 0.33. The relative viability ([9]; first compound 0.1 µM) was 0.315, the relative viability ([9]; first compound 0.3162 µM) was 0.287 and the relative viability ([9]; first compound 1 µM) was 0.276. For the same compound, the relative viability ([10]; first compound 0.01 µM) was 0.421, the relative viability ([10]; first compound 0.03162 µM) was 0.414 and the relative viability ([10]; first compound 0.1 µM) was 0.395. The relative viability ([10]; first compound 0.3162 µM) was 0.338, the relative viability ([10]; first compound 1 µM) was 0.519 and the relative viability ([11]; first compound 0.01 µM) was 0.33. It also gave a relative viability ([11]; first compound 0.03162 µM) of 0.334, a relative viability ([11]; first compound 0.1 µM) of 0.314 and a relative viability ([11]; first compound 0.3162 µM) of 0.321.
